From ChEMBL document CHEMBL3431459, “Roche carnitine palmitoyltransferase modulator screening data (supplementary data associated with the publication CHEMBL2216752)”
Values after ≈ are worked out from the molar mass of the structure shown.

Assays:
[1] = SUPPLEMENTARY: PAMPA permeability assay; assay type: physicochemical; settings: read-out: Permeability
[2] = target: T1, Carnitine O-palmitoyltransferase 1, liver isoform (Rattus norvegicus, UniProt P32198); test: (§1) SUPPLEMENTARY: Inhibition of Carnitine palmitoyltransferase 1, liver isoform
T1 sequence (P32198 whole entry): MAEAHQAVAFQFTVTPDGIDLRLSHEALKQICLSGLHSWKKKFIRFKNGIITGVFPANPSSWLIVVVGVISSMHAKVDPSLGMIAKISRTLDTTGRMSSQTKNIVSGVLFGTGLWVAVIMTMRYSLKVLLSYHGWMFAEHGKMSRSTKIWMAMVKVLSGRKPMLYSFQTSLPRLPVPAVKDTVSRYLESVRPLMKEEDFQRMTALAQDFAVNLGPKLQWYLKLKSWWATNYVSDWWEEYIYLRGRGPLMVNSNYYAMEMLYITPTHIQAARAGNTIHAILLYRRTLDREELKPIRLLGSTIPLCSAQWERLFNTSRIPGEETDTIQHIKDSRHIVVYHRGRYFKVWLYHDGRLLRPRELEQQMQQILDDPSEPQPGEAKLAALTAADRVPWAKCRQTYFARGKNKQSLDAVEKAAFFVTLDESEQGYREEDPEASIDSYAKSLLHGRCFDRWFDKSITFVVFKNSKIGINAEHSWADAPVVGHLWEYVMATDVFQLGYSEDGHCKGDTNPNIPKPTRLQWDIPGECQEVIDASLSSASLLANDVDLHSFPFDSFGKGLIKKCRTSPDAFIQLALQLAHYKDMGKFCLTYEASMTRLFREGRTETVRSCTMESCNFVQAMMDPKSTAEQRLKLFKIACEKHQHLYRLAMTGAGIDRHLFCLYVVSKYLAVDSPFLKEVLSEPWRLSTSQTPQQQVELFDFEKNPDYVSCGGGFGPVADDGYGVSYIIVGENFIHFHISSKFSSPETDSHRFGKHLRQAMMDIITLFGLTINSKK

[3] = target: T2, Carnitine O-palmitoyltransferase 1, liver isoform (Homo sapiens, UniProt P50416); test: as §1
T2 sequence (P50416 whole entry): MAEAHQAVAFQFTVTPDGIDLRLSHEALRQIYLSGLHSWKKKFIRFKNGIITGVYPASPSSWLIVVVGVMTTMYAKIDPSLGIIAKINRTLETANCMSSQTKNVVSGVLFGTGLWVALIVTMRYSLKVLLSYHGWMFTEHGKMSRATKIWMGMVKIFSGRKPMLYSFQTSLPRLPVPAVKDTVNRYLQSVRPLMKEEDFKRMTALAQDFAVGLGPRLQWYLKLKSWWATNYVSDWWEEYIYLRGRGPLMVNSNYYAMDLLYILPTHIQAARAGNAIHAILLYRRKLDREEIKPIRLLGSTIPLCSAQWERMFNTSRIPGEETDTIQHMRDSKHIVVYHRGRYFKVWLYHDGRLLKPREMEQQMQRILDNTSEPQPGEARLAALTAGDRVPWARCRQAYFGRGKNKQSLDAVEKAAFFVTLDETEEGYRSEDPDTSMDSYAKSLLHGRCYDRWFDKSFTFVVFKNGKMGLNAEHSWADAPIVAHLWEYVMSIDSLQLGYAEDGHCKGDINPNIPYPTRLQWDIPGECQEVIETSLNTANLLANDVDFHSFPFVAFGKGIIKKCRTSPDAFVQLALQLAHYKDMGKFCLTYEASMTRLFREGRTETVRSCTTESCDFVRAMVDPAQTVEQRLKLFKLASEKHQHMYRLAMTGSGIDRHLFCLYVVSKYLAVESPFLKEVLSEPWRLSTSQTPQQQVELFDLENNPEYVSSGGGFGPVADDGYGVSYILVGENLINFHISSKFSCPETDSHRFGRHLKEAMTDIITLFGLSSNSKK

[4] = SUPPLEMENTARY: Lyophilisation Solubility Assay (LYSA); assay type: physicochemical; settings: read-out: Kinetic_solubility
[5] = SUPPLEMENTARY: Lipophilicity (log D) Determination by high-throughput shake-flask; assay type: physicochemical; settings: octanol/water
[6] = target: T3, Carnitine O-palmitoyltransferase 2, mitochondrial (Homo sapiens, UniProt P23786); test: (§2) SUPPLEMENTARY: Inhibition of Carnitine palmitoyltransferase 2
T3 sequence (P23786 whole entry): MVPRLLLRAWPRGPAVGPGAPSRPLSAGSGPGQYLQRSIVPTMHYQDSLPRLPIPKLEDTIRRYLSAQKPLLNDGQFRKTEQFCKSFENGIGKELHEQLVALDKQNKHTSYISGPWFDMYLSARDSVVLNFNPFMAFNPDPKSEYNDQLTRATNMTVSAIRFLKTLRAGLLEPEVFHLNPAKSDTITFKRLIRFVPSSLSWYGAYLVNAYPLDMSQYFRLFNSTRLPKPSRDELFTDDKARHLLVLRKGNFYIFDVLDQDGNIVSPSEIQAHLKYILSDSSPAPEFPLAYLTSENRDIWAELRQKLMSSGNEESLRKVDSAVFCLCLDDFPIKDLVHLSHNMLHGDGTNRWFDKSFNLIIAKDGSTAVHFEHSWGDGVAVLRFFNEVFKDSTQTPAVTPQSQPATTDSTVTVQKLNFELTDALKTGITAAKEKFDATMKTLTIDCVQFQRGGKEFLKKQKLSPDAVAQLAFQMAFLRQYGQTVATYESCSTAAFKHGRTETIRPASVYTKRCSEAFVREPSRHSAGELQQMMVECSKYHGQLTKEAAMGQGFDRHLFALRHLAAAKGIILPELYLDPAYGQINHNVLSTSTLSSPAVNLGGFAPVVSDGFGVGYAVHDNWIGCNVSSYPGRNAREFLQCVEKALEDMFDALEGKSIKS

[7] = target: T4, Carnitine O-palmitoyltransferase 2, mitochondrial (Rattus norvegicus, UniProt P18886); test: as §2
T4 sequence (P18886 whole entry): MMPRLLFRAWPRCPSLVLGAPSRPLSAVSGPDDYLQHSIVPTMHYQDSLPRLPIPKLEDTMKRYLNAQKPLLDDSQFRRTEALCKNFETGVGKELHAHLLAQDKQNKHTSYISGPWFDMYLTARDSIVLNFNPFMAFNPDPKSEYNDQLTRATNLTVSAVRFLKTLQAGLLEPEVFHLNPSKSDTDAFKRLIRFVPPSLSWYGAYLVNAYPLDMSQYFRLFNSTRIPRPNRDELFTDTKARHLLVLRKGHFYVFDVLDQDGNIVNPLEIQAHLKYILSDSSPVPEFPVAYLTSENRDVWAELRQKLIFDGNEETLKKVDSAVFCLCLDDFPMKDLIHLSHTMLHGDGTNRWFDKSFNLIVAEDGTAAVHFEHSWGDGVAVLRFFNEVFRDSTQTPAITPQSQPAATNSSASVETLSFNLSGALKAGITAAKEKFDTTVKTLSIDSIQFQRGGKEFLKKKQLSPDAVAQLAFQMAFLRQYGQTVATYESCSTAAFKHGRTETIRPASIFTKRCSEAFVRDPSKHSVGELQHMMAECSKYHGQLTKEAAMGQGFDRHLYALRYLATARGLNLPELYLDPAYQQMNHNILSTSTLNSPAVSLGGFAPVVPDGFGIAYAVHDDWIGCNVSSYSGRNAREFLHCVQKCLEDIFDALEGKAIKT

[8] = target: T5, Carnitine O-palmitoyltransferase 1, muscle isoform (Homo sapiens, UniProt Q92523); test: SUPPLEMENTARY: Inhibition of Carnitine palmitoyltransferase 1, muscle isoform; set-up: species or system Muscle tissue
T5 sequence (Q92523 whole entry): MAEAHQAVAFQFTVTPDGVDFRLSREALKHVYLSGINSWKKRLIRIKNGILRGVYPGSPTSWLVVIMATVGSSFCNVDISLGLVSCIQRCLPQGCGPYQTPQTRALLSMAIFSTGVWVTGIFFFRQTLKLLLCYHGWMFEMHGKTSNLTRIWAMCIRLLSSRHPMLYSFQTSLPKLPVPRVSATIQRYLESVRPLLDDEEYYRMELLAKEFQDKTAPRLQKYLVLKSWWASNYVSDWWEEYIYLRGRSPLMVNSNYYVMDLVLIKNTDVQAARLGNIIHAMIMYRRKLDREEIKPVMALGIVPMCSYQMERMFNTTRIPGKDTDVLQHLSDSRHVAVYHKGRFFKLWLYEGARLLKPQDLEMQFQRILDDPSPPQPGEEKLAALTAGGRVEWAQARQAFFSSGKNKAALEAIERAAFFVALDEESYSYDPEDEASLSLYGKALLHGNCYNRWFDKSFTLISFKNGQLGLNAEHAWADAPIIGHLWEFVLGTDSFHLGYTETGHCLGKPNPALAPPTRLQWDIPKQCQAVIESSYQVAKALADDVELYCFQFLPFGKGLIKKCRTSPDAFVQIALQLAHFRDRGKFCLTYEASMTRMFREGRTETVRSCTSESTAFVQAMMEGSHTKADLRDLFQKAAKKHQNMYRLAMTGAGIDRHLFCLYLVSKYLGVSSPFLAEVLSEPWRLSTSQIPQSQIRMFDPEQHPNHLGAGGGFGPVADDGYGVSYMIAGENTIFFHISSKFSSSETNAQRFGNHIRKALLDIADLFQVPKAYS

SMILES | Papp [1] [×10⁻⁶ cm/s] | IC50 [2] [nM] | IC50 [3] [nM] | solubility kinetic [4] [µg/mL] | logD [5] | IC50 [6] [nM] | IC50 [7] [nM] | IC50 [8] [nM]
Nc1ncc(Cl)c(-c2nc([C@H]3CCCCN3C(=O)COc3ccccc3)no2)n1 | 3.59 | 129 | 117 | 51 (≈ 123 µM) | 2.61 | 14400 | > 100000 | 63800
O=C(COc1ccccc1)N1CCCC[C@@H]1c1noc(-c2ccc(-n3cncn3)cc2)n1 | 2.25 | 96.3 | 91.2 | 11 (≈ 25.6 µM) | 3.08 | 33400 | > 100000 | > 100000
O=C(COc1ccccc1)N1CCCC[C@@H]1c1noc(-c2ccc(-n3cnnn3)cc2)n1 | 1.7 | 98.1 | 98.6 | 8 (≈ 18.5 µM) | 2.92 | 15000 | > 100000 | > 100000
O=C(COc1ccccc1)N1CCCC[C@@H]1c1noc(-c2cccc3[nH]cnc23)n1 | 1.67 | 189 | 87.3 | 30 (≈ 74.4 µM) | 2.84 | 84200 | > 100000 | > 100000
O=C(COc1ccccc1)N1CCCC[C@@H]1c1noc(-c2cnc3ccccc3n2)n1 | 4.18 | 235 | 176 | 12 (≈ 28.9 µM) | 3.22 | > 100000 | > 100000 | > 100000
O=C(COc1ccccc1)N1CCCC[C@@H]1c1noc(-c2ccc3cccnc3n2)n1 | 5.43 | 153 | 129 | 31.5 (≈ 75.8 µM) | 2.35 | 21400 | > 100000 | > 100000
O=C(COc1ccccc1)N1CCCC[C@@H]1c1noc(-c2ccc3cnccc3n2)n1 | 4.52 | 305 | 188 | 82 (≈ 197 µM) | 2.52 | 17400 | > 100000 | > 100000
O=C(COc1ccccc1)N1CCCC[C@@H]1c1noc(-c2cnnc3ccccc23)n1 | 3.59 | 136 | 49.1 | 18 (≈ 43.3 µM) | 2.9 | 18800 | 89900 | > 100000

The remaining lines, values ahead:

Papp [1] [×10⁻⁶ cm/s] | IC50 [2] [nM] | IC50 [3] [nM] | solubility kinetic [4] [µg/mL] | logD [5] | IC50 [6] [nM] | IC50 [7] [nM] | IC50 [8] [nM] | SMILES
1.54 | 30.4 | 51.4 | 6 (≈ 14.8 µM) | 3.25 | 4770 | > 100000 | > 100000 | CC(=O)c1ccc(-c2nc([C@H]3CCCCN3C(=O)COc3ccccc3)no2)cc1
2.96 | 125 | 206 | 18 (≈ 40.8 µM) | 2.39 | 22300 | > 100000 | > 100000 | CS(=O)(=O)c1cccc(-c2nc([C@H]3CCCCN3C(=O)COc3ccccc3)no2)c1
5.17 | 254 | 154 | 32 (≈ 80.2 µM) | 2.98 | 38200 | > 100000 | > 100000 | O=C(COc1ccccc1)N1CCCC[C@@H]1c1noc(-c2ccc(Cl)nc2)n1
2.4 | 147 | 177 | 2 (≈ 4.76 µM) | 3.31 | 18000 | > 100000 | > 100000 | O=C(COc1ccccc1)N1CCCC[C@@H]1c1noc(-c2ccc3ncsc3c2)n1
2.21 | 200 | 197 | 8 (≈ 18.5 µM) | 3.38 | 6600 | 71000 | > 100000 | O=C(COc1ccccc1)N1CCCC[C@@H]1c1noc(-c2ccc(C(F)(F)F)nc2)n1
2.42 | 182 | 78.4 | 1 (≈ 2.37 µM) | > 3 | 2740 | 42600 | > 100000 | O=C(COc1ccccc1)N1CCCC[C@@H]1c1noc(-c2ccc3snnc3c2)n1
2.14 | 916 | 79.4 | 46.5 (≈ 115 µM) | 2.22 | > 100000 | > 100000 | > 100000 | O=C(COc1ccccc1)N1CCCC[C@@H]1c1noc(-c2ccc3[nH]nnc3c2)n1
